Read-outs that look alike come from different tables or passages of the source.
Columns and labels:
[1] = test system: CYP2B6; set-up: method as in AZD5069 Investigator Brochure (IB); settings: at concentrations of up to 100 μmol/L; ref AZD5069 Investigator Brochure (IB); cited from earlier work
[2] = test system: CYP2C19; set-up: method as in AZD5069 Investigator Brochure (IB); settings: at concentrations of up to 100 μmol/L; ref AZD5069 Investigator Brochure (IB); cited from earlier work
[3] = test system: rat; settings: 1-month and 6-month rat studies; ref AZD5069 Investigator Brochure (IB); cited from earlier work
[4] = Pharmacokinetics of AZD5069 in plasma, non-compartmental analysis (AUClast, Cmax); assay type: in vivo, human
Method: Specific pharmacokinetic collection time points are listed in the study protocol. Pharmacokinetic parameters were calculated using non-compartmental analysis (Phoenix v.8.1, Certara). Fresh tumour needle core biopsies from matched disease sites (lymph node, bone and soft tissue) were collected at baseline (within 1 week of treatment commencement) and approximately 2 weeks after starting AZD5069 in patients when this was deemed safe and feasible. Tumour biopsies were obtained from 18 patients under computerized tomography or ultrasound guidance by an experienced interventional radiologist (N.T.). […] One patient had only a baseline tumour biopsy. Two patients underwent on-treatment biopsies after 4 weeks. Immediately after biopsy, tumour samples were immersed in 10% neutral-buffered formalin for 24 hours. Samples were processed through paraffin wax for histologic examination. Three 3 μm sections of formalin-fixed paraffin-embedded (FFPE) tumour biopsy were stained with haematoxylin and eosin to confirm the presence of tumour by a pathologist (B.G.). Tumour samples with insufficient tumour content or significant crushed artefact were excluded from analyses (B.G.). Baseline FFPE samples were analysed by IHC, and pre- and post-treatment FFPE biopsies were analysed by IF and targeted RNA profiling using HTG EdgeSeq. All samples that failed initial analyses by IF were restained at least once. A list of tumour samples and their methods of analyses are detailed in Supplementary Table 4.

[5] = test system: healthy volunteers; set-up: method as in AZD5069 Investigator Brochure (IB); settings: ref AZD5069 Investigator Brochure (IB), cited from earlier work
[6] = test system: patients with ARSI-resistant mCRPC; assay: Phase 1 trial of AZD5069 plus enzalutamide: antitumour activity (RECIST v.1.1, PSA, CTC count); assay type: in vivo, human
Description: Patients needed to be on treatment for at least 12 weeks to be considered a responder. Thirteen patients had assessable measurable disease by Response Evaluation Criteria in Solid Tumors v.1.1. […] All patients classed as partial responders had radiologic progression-free survival of more than 6 months. […] Three of four patients classed as partial responders, for whom pre-treatment tissue biopsy was available for androgen receptor splice variant 7 (AR-V7) immunohistochemistry (IHC) including the patient who received only abiraterone previously, had tumour expressing AR-V7 protein.
Radiologic tumour responses were measured by computerized tomography of the thorax, abdomen and pelvis, bone scan, and, where indicated, whole-body magnetic resonance imaging, at baseline, once every 3 cycles, and then at the end of treatment if this was more than 8 weeks since the last scan. PSA and CTC count were measured at baseline, and then on day 1 of every cycle, and at the end of treatment. CTC counts were analysed using previously described methods.
Secondary endpoints were:(i) the rate of objective response, with objective response defined as confirmed soft tissue objective response by Response Evaluation Criteria in Solid Tumors v.1.1 in those with measurable disease, and/or PSA decline ≥50% confirmed 4 weeks or later, and/or CTC count conversion from ≥5 per 7.5 ml of blood at baseline to <5 per 7.5 ml of blood at nadir; (ii) pharmacokinetic parameters, including maximum concentration, area under the concentration–time curve; and (iii) pharmacodynamic changes including identifying patients whose blood NLR, neutrophil, and intratumour myeloid cell density decrease. Exploratory endpoints included blood cytokine levels and evaluation of tumour molecular profile on response.
Sample size was chosen pragmatically. According to the rule-based 3 + 3 design, which guided dose-escalation decisions, the cohort size was three patients and skipping of dose levels was not allowed. Patients who completed the DLT period or experienced a DLT during the DLT period were considered part of the evaluable population. Patients who received at least one dose of study drug were considered part of the safety population. To be evaluable for response, the patient must have met the eligibility criteria, received at least three cycles of trial medication, and have had baseline assessment of disease. Comparisons of baseline characteristics between patients classed as responders and those classed as non-responders were carried out using the two-sided Mann–Whitney U-test. Comparisons of paired pharmacokinetic and pharmacodynamic parameters were carried out using the two-sided paired Wilcoxon signed-rank test. Safety variables and pharmacokinetic and pharmacodynamic endpoints were summarized descriptively.

[7] = test system: patients with chronic obstructive pulmonary disease (COPD); settings: cited from earlier work
[8] = test system: gastric emptying and intestinal motility; settings: rat, ref AZD5069 Investigator Brochure (IB), cited from earlier work
[9] = partial responder at AZD5069 80 mg BD
[10] = first partial responder at AZD5069 160 mg BD, at nadir (3–4 months)
[11] = partial responder at AZD5069 120 mg BD
[12] = second responder at AZD5069 160 mg BD

For C[C@@H](Oc1cc(NS(=O)(=O)N2CCC2)nc(SCc2cccc(F)c2F)n1)[C@@H](O)CO [AZD5069], the “inhibition of CYP2B6” value [1] is listed as “not an inhibitor”, the “inhibition of CYP2C19” value [2] is listed as “not an inhibitor” and the “dose with enlarged mandibular lymph nodes in both sexes” value [3] is listed as at least 40 mg/kg BD. The “AZD5069 exposure (AUClast and Cmax) at steady state versus dose” value ([4]; AZD5069 monotherapy day 15, 40 to 160 mg BD) was “increased in a dose-dependent manner”, the “AZD5069 exposure (AUClast) with enzalutamide” value ([4]; combination (28 days) versus monotherapy (14 days), particularly at the higher dose levels) was “decreased after the addition of enzalutamide” and the “drug exposure (AUClast and Cmax)” value [4, 9] was “comparable to those of patients treated at 160 mg BD”. For the same compound, the “adverse effects considered to be related to treatment” value ([5]; 202 healthy volunteers) was “no clinically significant adverse effects”, the “doses with a reduction in blood neutrophil counts” value ([5]; healthy volunteers) was at least 5.45 mg and the “objective partial response rate (RECIST v.1.1 ≥30% decrease, PSA decline ≥50% and/or CTC conversion)” value ([6]; 21 response-evaluable patients, all dose levels, plus enzalutamide) was 24%. The CTC count ([6]; Patient 4 (as per Fig. 4a), C1D1) was 5 CTC/7.5 ml blood, the CTC count ([6]; Patient 4, C1D15) was 2 CTC/7.5 ml blood and the CTC count ([6]; Patient 4, C2D1) was 1 CTC/7.5 ml blood. The CTC count ([6]; Patient 4, C3D1) was 5 CTC/7.5 ml blood, the CTC count ([6]; Patient 4, C4D1) was 3 CTC/7.5 ml blood and the CTC count ([6]; Patient 4, C5D1) was 5 CTC/7.5 ml blood. For the same compound, the CTC count ([6]; Patient 4, C6D1) was 5 CTC/7.5 ml blood, the CTC count ([6]; Patient 4, C7D1) was 3 CTC/7.5 ml blood and the CTC count ([6]; Patient 4, C8D1) was 12 CTC/7.5 ml blood. For the same compound, the CTC count ([6]; Patient 4, C9D1) was 14 CTC/7.5 ml blood, the CTC count ([6]; Patient 4, C10D1) was 33 CTC/7.5 ml blood and the CTC count ([6]; Patient 4, C11D1) was 34 CTC/7.5 ml blood. For the same compound, the CTC count ([6]; Patient 4, C12D1) was 57 CTC/7.5 ml blood, the CTC count ([6]; Patient 4, C13D1) was 52 CTC/7.5 ml blood and the CTC count ([6]; Patient 4, C14D1) was 53 CTC/7.5 ml blood. For the same compound, the CTC count ([6]; Patient 4, C15D1) was 96 CTC/7.5 ml blood, the CTC count ([6]; Patient 4, C16D1) was 235 CTC/7.5 ml blood and the CTC count ([6]; Patient 4, C17D1) was 86 CTC/7.5 ml blood. The CTC count ([6]; Patient 4, C18D1) was 97 CTC/7.5 ml blood, the CTC count ([6]; Patient 4, Treatment Discontinuation) was 119 CTC/7.5 ml blood and the CTC count ([6]; Patient 10 (as per Fig. 4a), C1D1) was 39 CTC/7.5 ml blood. For the same compound, the CTC count ([6]; Patient 10, C1D15) was 26 CTC/7.5 ml blood, the CTC count ([6]; Patient 10, C2D1) was 19 CTC/7.5 ml blood and the CTC count ([6]; Patient 10, C3D1) was 0 CTC/7.5 ml blood. The CTC count ([6]; Patient 10, C4D1) was 10 CTC/7.5 ml blood, the CTC count ([6]; Patient 10, C5D1) was 46 CTC/7.5 ml blood and the CTC count ([6]; Patient 10, C9D1) was 101 CTC/7.5 ml blood. The CTC count ([6]; Patient 10, Treatment Discontinuation) was 129 CTC/7.5 ml blood, the “radiologic progression-free survival of patients classed as partial responders” value ([6]; all five partial responders) was “more than 6 months” and the radiologic progression-free survival ([6]; first partial responder at AZD5069 160 mg BD) was 8 months. For the same compound, the PSA fall [6, 10] was 84%, the “decrease in nodal disease” value [6, 10] was 20% and the PSA on treatment ([6]; first partial responder at AZD5069 160 mg BD, at nadir, from 344 ng ml^−1) was 55 ng/mL. The “duration of CTC conversion” value [6, 9] was “seven”, the time on trial [6, 9] was 16 months and the CTC count ([6]; partial responder at AZD5069 80 mg BD, at cycle 2, baseline 9) was 1 per 7.5 ml of blood. For the same compound, the “duration of radiologic and clinical responses” value [6, 11] was 11 months, the “reduction of measurable disease” value [6, 11] was 31% and the PSA fall ([6]; partial responder at AZD5069 120 mg BD, after 5 cycles) was 89%. For the same compound, the PSA on treatment ([6]; partial responder at AZD5069 120 mg BD, after 5 cycles, from 98 ng ml^−1) was 11 ng/mL, the “time to new bone metastases” value ([6]; partial responder at AZD5069 320 mg BD) was 8 months and the PSA reduction ([6]; partial responder at AZD5069 320 mg BD, after four cycles) was 64%. For the same compound, the PSA on treatment ([6]; partial responder at AZD5069 320 mg BD, after four cycles, from 129 ng ml^−1) was 47 ng/mL, the PSA change [6, 12] was “no PSA decrease” and the radiologic progression-free survival [6, 12] was 8 months. For the same compound, the “CTC count, peak” value ([6]; second responder at AZD5069 160 mg BD, during cycle 1, baseline 11) was 39 per 7.5 ml of blood, the CTC count ([6]; second responder at AZD5069 160 mg BD, during cycle 4) was 0 per 7.5 ml of blood and the “adverse events (AEs)” value ([7]; 50mg AZD5069, ref (18)) was 33%. For the same compound, the “treatment discontinuation for decrease in neutrophils (<1.0 × 10^9/L in two blood samples, 24 hours apart)” value ([7]; 50mg AZD5069, ref (18)) was 10%, the “adverse events (AEs)” value ([7]; 80mg AZD5069, ref (18)) was 21% and the “treatment discontinuation for decrease in neutrophils (<1.0 × 10^9/L in two blood samples, 24 hours apart)” value ([7]; 80mg AZD5069, ref (18)) was 4%. For the same compound, the “AEs leading to discontinuation of treatment” value ([7]; AZD5069 50 mg group, ref (18)) was 17%, the “patients discontinued from the study due to decreased neutrophil count” value ([7]; AZD5069 50 mg group, ref (18)) was 3 and the “AEs leading to discontinuation of treatment” value ([7]; AZD5069 80 mg group, ref (18)) was 7%. For the same compound, the “average decrease of blood neutrophil counts from baseline” value ([7]; AZD5069 80 mg group, ref (18)) was 13-36%, the “patients discontinued from the study due to decreased neutrophil count” value ([7]; AZD5069 80 mg group, ref (18)) was 1 and the “No Observed Effect Level (NOEL)” value ([8]; gastric emptying and intestinal motility) was 60 mg/kg. For the same compound, the “dose level with inhibition of gastric emptying and intestinal motility” value [8] was 350 mg/kg.

— paper PMC10686834, “Targeting myeloid chemotaxis to reverse prostate cancer therapy resistance” (Nature, 2023)
